Test results from paper PMC8131363 (Scientific Reports, 2021).
Like-named read-outs stand apart in the source and are kept apart here.

Legend:
[1] = target: T1, hCaSR (Homo sapiens, UniProt P41180); test: hCaSR transiently expressed in HEK293/natClytin, agonist luminescence assay; format: cell-based; conditions: transiently expressed hCaSR; > 3 mM = maximal response not reached; read-out: hCaSR EC50
T1 construct: expressed in transfected cells; host or cells: HEK293/natClytin (transient, pcDNA6 as delivered by GeneArt)
T1 sequence (P41180 20-1078): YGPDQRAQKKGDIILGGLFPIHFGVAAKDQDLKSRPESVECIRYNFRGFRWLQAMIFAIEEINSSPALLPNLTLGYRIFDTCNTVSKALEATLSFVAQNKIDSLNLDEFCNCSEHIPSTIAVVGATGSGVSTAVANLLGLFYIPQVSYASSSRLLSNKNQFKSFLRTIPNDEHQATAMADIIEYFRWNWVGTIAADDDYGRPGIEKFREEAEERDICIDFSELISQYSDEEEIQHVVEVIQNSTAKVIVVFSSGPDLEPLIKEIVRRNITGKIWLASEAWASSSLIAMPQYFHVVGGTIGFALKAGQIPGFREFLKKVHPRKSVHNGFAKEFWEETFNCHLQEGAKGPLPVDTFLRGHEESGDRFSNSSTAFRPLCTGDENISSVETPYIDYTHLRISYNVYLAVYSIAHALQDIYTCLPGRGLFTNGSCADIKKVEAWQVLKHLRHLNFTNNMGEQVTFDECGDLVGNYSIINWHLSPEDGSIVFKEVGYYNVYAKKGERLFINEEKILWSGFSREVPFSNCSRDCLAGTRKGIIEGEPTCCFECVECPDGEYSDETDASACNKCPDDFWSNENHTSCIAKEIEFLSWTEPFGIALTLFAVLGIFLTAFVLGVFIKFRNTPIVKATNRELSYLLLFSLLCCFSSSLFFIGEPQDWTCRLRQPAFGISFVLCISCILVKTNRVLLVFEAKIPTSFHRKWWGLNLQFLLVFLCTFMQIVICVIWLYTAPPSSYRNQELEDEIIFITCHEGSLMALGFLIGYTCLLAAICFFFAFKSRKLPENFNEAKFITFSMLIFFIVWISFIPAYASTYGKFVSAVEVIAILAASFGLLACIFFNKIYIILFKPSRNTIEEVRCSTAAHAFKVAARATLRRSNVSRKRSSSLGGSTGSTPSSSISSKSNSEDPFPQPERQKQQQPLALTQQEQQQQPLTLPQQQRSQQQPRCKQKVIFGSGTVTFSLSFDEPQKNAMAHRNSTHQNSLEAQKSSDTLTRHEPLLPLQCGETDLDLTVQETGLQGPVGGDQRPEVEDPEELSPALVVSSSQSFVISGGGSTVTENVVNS
Method: (§1) The coding sequence of the Felis catus[52] and Homo sapiens[53] CaSR gene was synthesised by GeneArt (Thermo Fisher Scientific). The cat coding sequence was excised from the GeneArt construct and inserted in pcDNA3.1 for constitutive and transient expression or pcDNA5/ TO for inducible expression. For the human sequence the pcDNA6 vector as delivered by GeneArt was used without further sub-cloning.
(§2) All transient transfections were performed with Lipofectamine 2000 (Invitrogen) according to the manufacturer’s protocol.

[2] = target: T2, cCaSR (Felis catus, UniProt C7FF08); test: cCaSR PAM luminescence assay, double injection with 0.5 mM CaCl2, HEK293/T-REx/natClytin-cCaSR; conditions: Supplementary Table I, PAM assay, dash = no activity
T2 sequence (C7FF08 1-1081): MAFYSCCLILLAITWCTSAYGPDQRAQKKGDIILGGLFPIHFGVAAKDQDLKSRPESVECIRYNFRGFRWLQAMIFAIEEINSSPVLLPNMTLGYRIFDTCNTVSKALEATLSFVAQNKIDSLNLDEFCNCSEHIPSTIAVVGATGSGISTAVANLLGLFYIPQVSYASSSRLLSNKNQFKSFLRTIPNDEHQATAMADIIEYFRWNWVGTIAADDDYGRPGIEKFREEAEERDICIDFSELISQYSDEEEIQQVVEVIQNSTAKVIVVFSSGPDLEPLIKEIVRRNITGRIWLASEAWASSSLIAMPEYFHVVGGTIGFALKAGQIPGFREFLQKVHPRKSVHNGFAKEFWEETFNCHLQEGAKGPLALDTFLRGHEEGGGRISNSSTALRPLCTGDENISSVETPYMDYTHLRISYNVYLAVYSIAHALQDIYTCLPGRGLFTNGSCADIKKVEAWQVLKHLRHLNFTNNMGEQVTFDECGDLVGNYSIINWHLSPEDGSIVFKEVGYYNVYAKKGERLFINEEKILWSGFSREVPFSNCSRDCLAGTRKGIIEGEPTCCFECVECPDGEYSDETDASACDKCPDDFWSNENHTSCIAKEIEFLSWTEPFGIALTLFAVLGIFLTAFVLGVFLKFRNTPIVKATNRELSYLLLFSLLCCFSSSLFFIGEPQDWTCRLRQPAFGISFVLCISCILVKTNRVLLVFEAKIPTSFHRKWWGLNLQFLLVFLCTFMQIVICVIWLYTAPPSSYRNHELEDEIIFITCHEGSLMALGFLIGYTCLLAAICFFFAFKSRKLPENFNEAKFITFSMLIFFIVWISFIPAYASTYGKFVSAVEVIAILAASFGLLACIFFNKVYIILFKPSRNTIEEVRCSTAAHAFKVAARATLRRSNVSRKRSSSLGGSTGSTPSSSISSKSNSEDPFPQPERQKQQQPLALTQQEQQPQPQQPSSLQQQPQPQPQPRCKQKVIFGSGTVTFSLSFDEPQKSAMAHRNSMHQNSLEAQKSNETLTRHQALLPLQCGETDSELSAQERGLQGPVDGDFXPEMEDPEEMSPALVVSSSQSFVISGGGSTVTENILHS
Method: The cCaSR expression constructs were stably-transfected in the mammalian cell line, HEK293/ T-REx/ natClytin. Transfections were performed by electroporation, following standard methodologies. Stably-transfected target and mock pools were obtained after 2–3 weeks of antibiotic selection, and clones were selected for testing. In order to evaluate the activity of each clone, 10 mM Calcium was injected onto the cells and the resulting luminescence was measured.
All compounds screened on the receptor were analysed in parallel with Calcium, on the HEK293/ T-REx/ natClytin-cCaSR or hCaSR stable or transient cell lines. Prior to the measurements, the cells were incubated with 10 µM of photoprotein substrate, Coelenterazine, prepared in Calcium-free Tyrode’s buffer at 37 °C for 3–4 h. All the data was captured using a FLIPR Tetra (Molecular Devices). A single or double injection protocol was used to capture the data for potential agonists and PAMs, respectively. The compounds tested were all prepared at desired concentration in Calcium-Free Tyrode’s buffer supplemented with 0.5% DMSO. For the activity determination of potential agonists, the single injection protocol was used, with CaCl2 as the positive control for each run. Each compound was injected into specific wells and the luminescence signal was measured for 1 min. for each compound. For potential PAMs, the double injection protocol was used. The first injection was identical to the one described above for potential agonists. A 20 min. resting period followed the first injection and a second injection of 0.5 mM CaCl2 in Calcium-free Tyrode’s buffer was injected to all wells, and the resulting luminescence signal was again measured for 1 min for each compound.
The half maximal effective concentrations (EC50) were identified by nonlinear regression using a variable slope model with the equation Y = Bottom + (X^Hillslope)*(Top–Bottom)/ (X^HillSlope + EC50^HillSlope), where Y is the agonist concentration, Top and Bottom are the plateaus in the same units as Y and HillSlope is the Slope factor or Hill slope. All calculations and plots were done using GraphPad Prism 8. […] In these cases the EC50 was noted as being higher than the maximum concentration used in the assay.

[3] = target: T2, cCaSR; test: cCaSR transiently expressed in HEK293/natClytin, agonist luminescence assay; format: cell-based; conditions: transiently expressed cCaSR; > 3 mM = maximal response not reached; read-out: cCaSR EC50
Method: as §1, §2

[4] = target: T2, cCaSR
[5] = target: T2, cCaSR; test: cell-based
[6] = GSH at 2.5 mM
[7] = read-out: cCaSR activity, agonist assay, stable inducible cCaSR line, at least three wells
[8] = read-out: cCaSR stable EC50, stably expressed cCaSR, Fig. 6b, > 3 mM = maximal response not reached

SMILES: [Ca+2].[Cl-].[Cl-] [Ca^2+, CaCl2]
- EC50 [1]: 0.8 mM
- EC50 PAM (M) [2]: -
- EC50 [3]: 1.15 mM
- EC50 ([4]; agonist assay, stable inducible cCaSR line, > 0.01 M = maximal response not reached): 1.62 mM
- EC50 ([4]; read-out: EC50 Ago, Supplementary Table I, agonist assay, > 0.01 M = maximal response not reached): 1.62 mM
- EC50 [4, 7]: 1 to 10 mM
- EC50 [4, 8]: 1.47 mM

SMILES: N[C@@H](CCC(=O)N[C@@H](CS)C(=O)NCC(=O)O)C(=O)O [Glutathione]
- EC50 [1]: > 3 mM
- EC50 PAM (M) [2]: -
- EC50 [3]: > 3 mM
- EC50 ([5]; EC50 (M), agonist assay, stable inducible cCaSR line, > 0.01 M = maximal response not reached): 0.00639 M
- EC50 ([5]; EC50 Ago (M), Supplementary Table I, agonist assay, > 0.01 M = maximal response not reached): 0.0064 M
- EC50 ([5]; cCaSR activity, agonist assay, stable inducible cCaSR line, at least three wells): 0.001 to 0.01 M
- EC50 ([5]; cCaSR stable EC50(mM), stably expressed cCaSR, Fig. 6b, > 3 mM = maximal response not reached): > 0.003 M
- pH of solution [6]: 3.48

SMILES: [Cl-].[Cl-].[Mg+2] [Mg^2+, MgCl2]
- EC50 [1]: 3.9 mM
- EC50 PAM (M) [2]: -
- EC50 [3]: 8.6 mM
- EC50 [4, 7]: > 10 mM
- EC50 [4, 8]: > 3 mM
